Measurements taken from PMC9944328 (Nature Communications, 2023).
“And” between values parts separate entries of the source, which are not always exact repeats. Equal entries are not always repeated. Where two headings read alike, the source gives them in different places.

Key:
SSTR2 mutants [1] = target: SSTR2 mutants (Homo sapiens, UniProt P30874, I284A); assay: SSTRs Gi-mediated cAMP inhibition, GloSensor, HEK293, 5 μM forskolin, 15 min room temperature (SSTR2 mutants); format: cell-based; parameters: The human full-length SSTRs and mutants were cloned into the pcDNA3.1+ vector; expressed in transfected cells; host or cells: HEK293 (ATCC, CRL-1573); Best-fit Bottom, cAMP inhibition / Best-fit Top, cAMP inhibition / Span, cAMP inhibition / Bottom (best-fit value) / Top (best-fit value) / Span (best-fit value) / Span (best-fit) / Bottom (best-fit) / Top (best-fit) / Best-fit Bottom / Best-fit Top / Best-fit Span / Top / Span: scale not given here; details: I284A, best-fit, runs 1-3
SSTR2 mutants (Homo sapiens, UniProt P30874, I284A), sequence (P30874 whole entry I284A): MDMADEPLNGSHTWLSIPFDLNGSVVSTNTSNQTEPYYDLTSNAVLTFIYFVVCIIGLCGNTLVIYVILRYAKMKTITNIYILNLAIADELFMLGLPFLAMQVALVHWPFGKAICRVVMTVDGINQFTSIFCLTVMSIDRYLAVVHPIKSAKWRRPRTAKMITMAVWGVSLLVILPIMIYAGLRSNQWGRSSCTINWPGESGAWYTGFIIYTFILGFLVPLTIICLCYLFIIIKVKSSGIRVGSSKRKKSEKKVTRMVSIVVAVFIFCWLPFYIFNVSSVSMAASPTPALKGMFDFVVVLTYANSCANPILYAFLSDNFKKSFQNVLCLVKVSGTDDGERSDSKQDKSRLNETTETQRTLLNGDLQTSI
Experimental: (§1) The levels of the intracellular 3′, 5′-cyclic AMP (cAMP) were measured by the GloSensor cAMP assay (Promega) as described in the previous studies[28],[41] which has been widely used. The human full-length SSTRs and mutants were cloned into the pcDNA3.1+ vector with a HA signal sequence followed by a Flag tag at the N-terminus. HEK293 cells (ATCC, CRL-1573) were seeded into 6-well microplates at a density of 1.0 × 10^6 cells/well and cultured for 24 h at 37 °C with 5% CO2. Cells were then co-transfected with SSTR wild-type or mutants and GloSensor plasmids. After 24 h of transfection, the cells were dissociated with TrypLE™ Express Enzyme (1X) (Thermo Fisher Scientific) and collected by centrifugation at 500 × g for 5 min. Then the collected cells were suspended in Hank’s balanced salt solution [HBSS (Thermo Fisher Scientific)] supplemented with […] (YEASEN), and then the suspension cells were seeded into 96-well plates with 90 μl/well. After incubating at room temperature for 40 min, 5 μM forskolin and ligands diluted in HBSS were added to each well and the plates were incubated at room temperature for 15 min. […] were measured using the Synergy H1 microplate reader (BioTek) and the data presented are means of at least three independent experiments.

SSTR3 mutants [2] = target: SSTR3 mutants (Homo sapiens, UniProt P32745, F296D); assay: SSTRs Gi-mediated cAMP inhibition, GloSensor, HEK293 (SSTR3 mutants); format: cell-based; parameters: Bottom / Top / Span / Top (best-fit): unit not given here
SSTR3 mutants (Homo sapiens, UniProt P32745, F296D), sequence (P32745 whole entry F296D): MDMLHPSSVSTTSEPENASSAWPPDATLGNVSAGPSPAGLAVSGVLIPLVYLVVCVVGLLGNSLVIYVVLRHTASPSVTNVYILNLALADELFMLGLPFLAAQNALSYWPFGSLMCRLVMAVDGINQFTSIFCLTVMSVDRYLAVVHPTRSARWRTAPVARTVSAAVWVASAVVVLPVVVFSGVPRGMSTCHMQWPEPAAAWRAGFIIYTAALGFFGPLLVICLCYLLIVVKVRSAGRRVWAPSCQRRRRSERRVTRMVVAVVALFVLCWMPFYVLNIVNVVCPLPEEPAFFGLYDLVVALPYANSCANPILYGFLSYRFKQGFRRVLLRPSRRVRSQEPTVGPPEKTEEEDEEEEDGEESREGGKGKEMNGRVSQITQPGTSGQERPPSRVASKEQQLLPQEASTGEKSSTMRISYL
Experimental: as §1, with “HEK293 cells (ATCC, CRL-1573) were seeded into 6-well microplates at a density of 1.0 × 10^6 cells/well and cultured for 24 h at 37 °C with 5% CO2.” left out

SSTR3 mutants [3] = assay: as above; format: cell-based, human; parameters: Bottom / Top / Span / Top (best-fit): unit not given here; details: H192(45.51)T and N101(2.64)V in SSTR3
Experimental: as §1, with “HEK293 cells (ATCC, CRL-1573) were seeded into 6-well microplates at a density of 1.0 × 10^6 cells/well and cultured for 24 h at 37 °C with 5% CO2.” left out

SSTR3 mutants [4] = target: SSTR3 mutants (Homo sapiens, UniProt P32745, N104V); assay: as above; format: cell-based; parameters: Bottom / Top / Span / Top (best-fit): unit not given here; details: for Top: best-fit
SSTR3 mutants (Homo sapiens, UniProt P32745, N104V), sequence (P32745 whole entry N104V): as the sequence (P32745 whole entry F296D) above, with N104V, D296F counted along it
Experimental: as §1, with “HEK293 cells (ATCC, CRL-1573) were seeded into 6-well microplates at a density of 1.0 × 10^6 cells/well and cultured for 24 h at 37 °C with 5% CO2.” left out

SSTR3 mutants [5] = target: T1, SSTR3 mutants (Homo sapiens, UniProt P32745, M193I); assay: as above; format: cell-based; parameters: Bottom / Top / Span / Top (best-fit): unit not given here
T1 construct: The human full-length SSTRs and mutants were cloned into the pcDNA3.1+ vector; expressed in transfected cells; host or cells: HEK293 (ATCC, CRL-1573)
T1 sequence (P32745 whole entry M193I): as the sequence (P32745 whole entry F296D) above, with M193I, D296F counted along it
Experimental: as §1, with “HEK293 cells (ATCC, CRL-1573) were seeded into 6-well microplates at a density of 1.0 × 10^6 cells/well and cultured for 24 h at 37 °C with 5% CO2.” left out

SSTR2 mutants [6] = target: T2, SSTR2 mutants (Homo sapiens, UniProt P30874, L99A); assay: SSTRs Gi-mediated cAMP inhibition, GloSensor, HEK293, 5 μM forskolin, 15 min room temperature (SSTR2 mutants); format: cell-based; parameters: Best-fit Bottom, cAMP inhibition / Best-fit Top, cAMP inhibition / Span, cAMP inhibition / Bottom (best-fit value) / Top (best-fit value) / Span (best-fit value) / Span (best-fit) / Bottom (best-fit) / Top (best-fit) / Best-fit Bottom / Best-fit Top / Best-fit Span / Top / Span: scale not given here; details: L99A, best-fit, runs 1-3
T2 construct: The human full-length SSTRs and mutants were cloned into the pcDNA3.1+ vector; expressed in transfected cells; host or cells: HEK293 (ATCC, CRL-1573)
T2 sequence (P30874 whole entry L99A): as the sequence (P30874 whole entry I284A) above, with L99A, A284I counted along it
Experimental: as §1

SSTR2 mutants [7] = target: SSTR2 mutants (Homo sapiens, UniProt P30874, N276A); assay: cell-based
SSTR2 mutants (Homo sapiens, UniProt P30874, N276A), sequence (P30874 whole entry N276A): as the sequence (P30874 whole entry I284A) above, with N276A, A284I counted along it

SSTR2 mutants [8] = target: SSTR2 mutants (Homo sapiens, UniProt P30874, Y312A); assay: cell-based
SSTR2 mutants (Homo sapiens, UniProt P30874, Y312A), sequence (P30874 whole entry Y312A): as the sequence (P30874 whole entry I284A) above, with A284I, Y312A counted along it

SSTR2 mutants [9] = target: SSTR2 mutants (Homo sapiens, UniProt P30874, R140A); assay: cell-based
SSTR2 mutants (Homo sapiens, UniProt P30874, R140A), sequence (P30874 whole entry R140A): as the sequence (P30874 whole entry I284A) above, with R140A, A284I counted along it

## N#Cc1cccc(-c2ccc3ncc(-c4cc(F)cc(F)c4)c(N4CCC(N)CC4)c3c2)c1O [paltusotine]
SSTR2 mutants [1]
  Span: 112.7 and 91.59 and 139.6
  Top: 112.9 and 105.5 and 122.9
SSTR3 mutants [2]
  EC50: 0.309 ± 0.0063 µM
SSTR3 mutants [2]; HEK293
  Emax: 65.5 ± 6.4%
SSTR3 mutants [2]; Suppl. Table 4, SSTR3 F296(7.35)D
  Fold of WT: 4.84
SSTR3 mutants [2]; best-fit, SSTR3 F296D-1
  Bottom: 5.089
  LogEC50: -6.01
  Span: 99.77
  Top: 104.9
SSTR3 mutants [2]; best-fit, SSTR3 F296D-1, read-out: EC50
  EC50: 0.978 µM
SSTR3 mutants [2]; best-fit, SSTR3 F296D-2
  Bottom: 18.98
  LogEC50: -6.627
  Span: 120
  Top: 139
SSTR3 mutants [2]; best-fit, SSTR3 F296D-2, read-out: EC50
  EC50: 0.236 µM
SSTR3 mutants [2]; best-fit, SSTR3 F296D-3
  Bottom: 12.18
  LogEC50: -6.94
  Span: 133.1
  Top: 145.3
SSTR3 mutants [2]; best-fit, SSTR3 F296D-3, read-out: EC50
  EC50: 0.115 µM
SSTR3 mutants [3]
  Receptor activation of mutants: increased paltusotine-induced SSTR3 activation
SSTR3 mutants [4]
  EC50: 0.0978 µM
SSTR3 mutants [4]; SSTR3 N101V-1
  Top: 184
SSTR3 mutants [4]; SSTR3 N101V-2
  Top: 142.6
SSTR3 mutants [4]; SSTR3 N101V-3
  Top: 142.6
SSTR3 mutants [5]; HEK293, Suppl. Table 4, SSTR3 M193(45.52)I, n=3
  Emax: 38.8 ± 17.4%
SSTR3 mutants [5]; Suppl. Table 4, SSTR3 M193(45.52)I
  Fold of WT: 2.89
SSTR3 mutants [5]; Suppl. Table 4, SSTR3 M193(45.52)I, n=3
  EC50: 0.184 ± 0.00602 µM
SSTR3 mutants [5]; best-fit, SSTR3 M193I-1
  Bottom: -5.898
  EC50: 0.59 µM
  LogEC50: -6.229
  Span: 76.32
  Top: 70.42
SSTR3 mutants [5]; best-fit, SSTR3 M193I-2
  Bottom: 0.4332
  LogEC50: ~ -3.924
  Span: ~ 6676
  Top: ~ 6677
SSTR3 mutants [5]; best-fit, SSTR3 M193I-3
  Bottom: 0.4332
  LogEC50: ~ -3.924
  Span: ~ 6676
  Top: ~ 6677
SSTR2 mutants [6]
  Span: 97 and 104.2 and 101.2
  Top: 103.3 and 108.8 and 111.2
SSTR2 mutants [7]
  EC50: 0.1452 ± 0.00111 µM
SSTR2 mutants [8]
  EC50: 0.00813 ± 0.00164 µM
SSTR2 mutants [9]
  EC50: 0.0078 ± 0.00147 µM
